Data published in US5308608A, “Photosensitizing Diels-Alder porphyrin derivatives” (University of British Columbia, priority 1992, dated 1994).

Tested on: MI-S
Assay: In vitro photosensitizing cytotoxicity (LD50) on cell line MI-S, 700-820 nm light for 30 minutes
Assay type: cell-based
Conditions: eosin-Y exclusion or tritium-labeled thymidine uptake
Experimental: Various invention compounds were assayed in vitro using either cell line P815 or MI-S as model systems to test their photosensitizing activity. In the standard protocol, various concentrations of test compounds were added to washed suspensions of cells from cultures of the target cells and the mixtures were then irradiated using 700-820 nm light for 30 minutes. The results were assayed by determining cytotoxicity using direct counting using eosin-Y exclusion, a standard procedure for differentiating living from dead cells.
In other determinations conducted as above, the cells recovered from light exposure were assayed for viability by incubating them for 18 hours in 10 mCi/ml tritium-labeled thymidine according to the standard procedure whereby thymidine incorporation is equated with viability. The cells were harvested and radioactivity uptake was measured by a scintillation counter.

CCc1c(C)c2cc3nc(cc4[nH]c(cc5nc(cc1[nH]2)C1(C)C5=CCC2C(=O)N(c5ccccc5)C(=O)C21)c(C)c4CC)C1(C)C3=CCC2C(=O)N(c3ccccc3)C(=O)C21 (stereo not shown) [Compound 12]
LD50: 100 ng
